Earlier results in US20130072576A1, “Cationic Nanogels For Biotechnological Applications” (Universidad Del Pais Vasco, priority 2010, published 2013).

In the case of C=CN1CCCCCC1=O [VCL, N-vinylcaprolactam], the solubility in water is listed as 8.5 % by weight.
